Measurements as given in patent US12655116B2, “Substituted isophthalic acid diamides” (Bayer Aktiengesellschaft, priority 2020, dated 2026).

Key:
ABUTH = assay: Pre-emergence herbicidal action against ABUTH; format: in vivo, Abutilon theophrasti
How it was run: (§1)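 Greenhouse pots of sandy loam held seeds covered with soil, onto which the compound was applied before emergence. An aqueous suspension or emulsion of WP or EC was used at 600 to 800 l/ha with 0.2% wetting agent. Percent damage was judged visually at 3 weeks.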

ALOMY [1] = assay: Pre-emergence herbicidal action against ALOMY; format: in vivo, Alopecurus myosuroides; conditions: pre-emergence
How it was run: as §1

AMARE [2] = assay: Pre-emergence herbicidal action against AMARE; format: in vivo, Amaranthus retroflexus
How it was run: as §1

AVEFA = assay: Pre-emergence herbicidal action against AVEFA; format: in vivo, Avena fatua; conditions: 80 g/ha, pre-emergence
How it was run: as §1

ECHCG [3] = assay: Pre-emergence herbicidal action against ECHCG; format: in vivo, Echinochloa crus-galli; conditions: 80 g/ha
How it was run: as §1

MATIN [4] = assay: Pre-emergence herbicidal action against MATIN; format: in vivo, Matricaria inodora
How it was run: as §1

PHBPU [5] = assay: Pre-emergence herbicidal action against PHBPU; format: in vivo, Pharbitis purpurea; conditions: dosage 80 g/ha
Description: Seeds of monocotyledonous and dicotyledonous weed plants and crop plants are laid out in sandy loam soil in wood-fiber pots and covered with soil. The compounds of the invention, formulated in the form of wettable powders (WP) or as emulsion concentrates (EC), are then applied to the surface of the covering soil in the form of an aqueous suspension or emulsion at a water application rate equivalent to 600 to 800 l/ha, with addition of 0.2% wetting agent. After the treatment, the pots are placed in a greenhouse and kept under good growth conditions for the trial plants. The damage to the test plants is scored visually after a test period of 3 weeks by comparison with untreated controls (herbicidal activity in percent (%): 100% activity=the plants have died, 0% activity=like control plants). […] The tables below illustrate, in an illustrative manner, the post-emergence herbicidal action of the compounds of the invention, the herbicidal activity being stated in percent.

SETVI = assay: Pre-emergence herbicidal action against SETVI; format: in vivo, Setaria viridis; conditions: dosage 80 g/ha
How it was run: as §1

VERPE [6] = assay: Pre-emergence herbicidal action against VERPE; format: in vivo, Veronica persica; conditions: dosage 80 g/ha
How it was run: as §1

VIOTR [7] = assay: Pre-emergence herbicidal action against VIOTR; format: in vivo, Viola tricolor
How it was run: as §1

DIGSA [8] = assay: Pre-emergence herbicidal action against DIGSA; format: in vivo, Digitaria sanguinalis
How it was run: as §1

ALOMY [9] = assay: Post-emergence herbicidal action against ALOMY; format: in vivo, Alopecurus myosuroides; conditions: dosage 20 g/ha, visual assessment about 3 weeks after treatment vs untreated controls
How it was run: (§2)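 A WP or EC formulation diluted in water with 0.2% wetting agent was sprayed at 600 to 800 l/ha onto one-leaf-stage plants grown in sandy loam. About 3 weeks later, action was rated visually in percent, 100% being dead plants.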

AMARE [10] = assay: Post-emergence herbicidal action against AMARE; format: in vivo, Amaranthus retroflexus; conditions: 20 g/ha, visual assessment about 3 weeks after treatment, 100% = plants have died, 0% = like control plants
How it was run: as §2

ECHCG [11] = assay: Post-emergence herbicidal action against ECHCG; format: in vivo, Echinochloa crus-galli
How it was run: as §2

MATIN [12] = assay: Post-emergence herbicidal action against MATIN; format: in vivo, Matricaria inodora; conditions: dosage 20 g/ha
How it was run: as §2

PHBPU [13] = assay: Post-emergence herbicidal action against PHBPU; format: in vivo, Pharbitis purpurea; conditions: dosage 20 g/ha
How it was run: as §2

VIOTR [14] = assay: Post-emergence herbicidal action against VIOTR; format: in vivo, Viola tricolor; conditions: 20 g/ha
How it was run: as §2

DIGSA [15] = assay: Post-emergence herbicidal action against DIGSA; format: in vivo, Digitaria sanguinalis; conditions: for Post-emergence action against DIGSA in %: 5 g/ha; for Post-emergence action against DIGSA: 20 g/ha
How it was run: as §2

VERPE [16] = assay: Post-emergence herbicidal action against VERPE; format: in vivo, Veronica persica; conditions: 20 g/ha
How it was run: as §2

[17] = 80 g/ha, scored visually after 3 weeks vs untreated controls (100% = plants have died, 0% = like control plants)
[18] = dosage 20 g/ha, scored visually after 3 weeks vs untreated controls, 100% = plants have died, 0% = like control plants
[19] = 20 g/ha, scored visually after 3 weeks vs untreated controls, 100% = plants have died, 0% = like control plants

SMILES: CCn1nnnc1NC(=O)c1ccc(C(F)F)c(C(=O)NCC2CC2)c1Br [Example 2-228]
- Pre-emergence action against ABUTH (herbicidal activity) (ABUTH; [17]): 100%
- Pre-emergence action against ABUTH (herbicidal activity in percent) (ABUTH; [18]): 100%
- Pre-emergence action against ALOMY (herbicidal activity) (ALOMY [1]; [17]): 80%
- Pre-emergence action against AMARE in % (AMARE [2]; [19]): 100%
- Pre-emergence action against AMARE in % (AMARE [2]; [17]): 100%
- Pre-emergence action against AVEFA in % (AVEFA): 80%
- Pre-emergence action against ECHCG in % (ECHCG [3]): 100%
- Pre-emergence action against MATIN in % (MATIN [4]; dosage 20 g/ha): 90%
- Pre-emergence action against MATIN in % (MATIN [4]; dosage 80 g/ha): 100%
- Pre-emergence action against PHBPU in % (PHBPU [5]): 100%
- Pre-emergence action against SETVI in % (SETVI): 90%
- Pre-emergence action against VERPE in % (VERPE [6]): 90%
- Pre-emergence action against VIOTR in % (VIOTR [7]; dosage 20 g/ha): 100%
- Pre-emergence action against VIOTR in % (VIOTR [7]; dosage 80 g/ha): 100%
- Pre-emergence action against DIGSA in % (DIGSA [8]; dosage 20 g/ha): 100%
- Pre-emergence action against DIGSA in % (DIGSA [8]; dosage 80 g/ha): 100%
- Post-emergence action against ALOMY in % (ALOMY [9]): 80%
- Post-emergence action at 20 g/ha against AMARE in % (AMARE [10]): 90%
- Post-emergence action against ECHCG in % (ECHCG [11]; dosage 5 g/ha): 80%
- Post-emergence action against ECHCG in % (ECHCG [11]; dosage 20 g/ha): 90%
- Post-emergence action against MATIN in % (MATIN [12]): 80%
- Post-emergence action against PHBPU in % (PHBPU [13]): 80%
- Post-emergence action against VIOTR in % (VIOTR [14]): 80%
- Post-emergence action against DIGSA in % (DIGSA [15]): 80%
- Post-emergence action against DIGSA (DIGSA [15]): 80%

SMILES: CCn1nnnc1NC(=O)c1ccc(C(F)F)c(C(=O)NC(C)C2CC2)c1Br (centres unmarked) [Example 2-340]
- Pre-emergence action against ABUTH (herbicidal activity) (ABUTH; [17]): 100%
- Pre-emergence action against ABUTH (herbicidal activity in percent) (ABUTH; [18]): 100%
- Pre-emergence action against AMARE in % (AMARE [2]; [19]): 100%
- Pre-emergence action against AMARE in % (AMARE [2]; [17]): 100%
- Pre-emergence action against ECHCG in % (ECHCG [3]): 100%
- Pre-emergence action against MATIN in % (MATIN [4]; dosage 20 g/ha): 100%
- Pre-emergence action against MATIN in % (MATIN [4]; dosage 80 g/ha): 100%
- Pre-emergence action against PHBPU in % (PHBPU [5]): 80%
- Pre-emergence action against SETVI in % (SETVI): 100%
- Pre-emergence action against VERPE in % (VERPE [6]): 100%
- Pre-emergence action against VIOTR in % (VIOTR [7]; dosage 20 g/ha): 100%
- Pre-emergence action against VIOTR in % (VIOTR [7]; dosage 80 g/ha): 100%
- Pre-emergence action against DIGSA in % (DIGSA [8]; dosage 20 g/ha): 100%
- Pre-emergence action against DIGSA in % (DIGSA [8]; dosage 80 g/ha): 100%
- Post-emergence action at 20 g/ha against AMARE in % (AMARE [10]): 100%
- Post-emergence action against ECHCG in % (ECHCG [11]; dosage 20 g/ha): 90%
- Post-emergence action against MATIN in % (MATIN [12]): 80%
- Post-emergence action against PHBPU in % (PHBPU [13]): 80%
- Post-emergence action against VERPE in % (VERPE [16]): 90%
- Post-emergence action against VIOTR in % (VIOTR [14]): 80%
- Post-emergence action against DIGSA in % (DIGSA [15]): 80%
- Post-emergence action against DIGSA (DIGSA [15]): 90%

SMILES: Cc1nnc(NC(=O)c2ccc(C(F)(F)F)c(C(=O)NCC(F)(F)F)c2Cl)o1 [Example 6-120]
- pest or weed control at 80 g/ha (ABUTH; Abutilon theophrasti, 504 h, 80 g/ha, scored visually after 3 weeks vs untreated controls (100% = plants have died, 0% = like control plants)): 100%
- pest or weed control at 20 g/ha (ABUTH; Abutilon theophrasti, 504 h, dosage 20 g/ha, scored visually after 3 weeks vs untreated controls, 100% = plants have died, 0% = like control plants, read-out: Pre-emergence action against ABUTH (herbicidal activity in percent)): 80%
- pest or weed control at 80 g/ha (ALOMY [1]; Alopecurus myosuroides, 504 h, 80 g/ha, scored visually after 3 weeks vs untreated controls (100% = plants have died, 0% = like control plants)): 90%
- pest or weed control at 20 g/ha (ALOMY [1]; Alopecurus myosuroides, 504 h, 20 g/ha, scored visually after 3 weeks, 100% = plants have died, 0% = like control plants): 80%
- pest or weed control at 20 g/ha (AMARE [2]; Amaranthus retroflexus, 504 h, 20 g/ha, scored visually after 3 weeks vs untreated controls, 100% = plants have died, 0% = like control plants): 100%
- pest or weed control at 80 g/ha (AMARE [2]; Amaranthus retroflexus, 504 h, 80 g/ha, scored visually after 3 weeks vs untreated controls, 100% = plants have died, 0% = like control plants): 100%
- pest or weed control at 80 g/ha (AVEFA; Avena fatua, 504 h): 90%
- pest or weed control at 80 g/ha (ECHCG [3]; Echinochloa crus-galli, 504 h): 100%
- pest or weed control at 20 g/ha (MATIN [4]; Tripleurospermum inodorum, 504 h, dosage 20 g/ha): 90%
- pest or weed control at 80 g/ha (MATIN [4]; Tripleurospermum inodorum, 504 h, dosage 80 g/ha): 90%
- pest or weed control at 80 g/ha (PHBPU [5]; Ipomoea purpurea, 504 h): 80%
- pest or weed control at 80 g/ha (SETVI; Setaria viridis, 504 h): 100%
- pest or weed control at 80 g/ha (VIOTR [7]; Viola tricolor, 504 h, dosage 80 g/ha): 90%
- pest or weed control at 80 g/ha (DIGSA [8]; Digitaria sanguinalis, 504 h, dosage 80 g/ha): 90%
- pest or weed control at 20 g/ha (AMARE [10]; Amaranthus retroflexus, 504 h): 90%
- pest or weed control at 20 g/ha (ECHCG [11]; Echinochloa crus-galli, 504 h, dosage 20 g/ha): 90%
- pest or weed control at 20 g/ha (PHBPU [13]; Ipomoea purpurea, 504 h): 90%
- pest or weed control at 20 g/ha (VERPE [16]; Veronica persica, 504 h): 80%
